Measured values: US20230092001A1, “FURANEOL GLYCOSIDE COMPOUND, PHARMACEUTICAL COMPOSITION THEREOF, PREPARATION METHOD THEREFOR, AND APPLICATION THEREOF” (priority 2019, published 2023)

Key:
[1] = tested on: ulcerative colitis model (dextran sodium sulphate); assay: Effect Example 3: therapeutic effect on ulcerative colitis, dextran sodium sulphate model, oral gavage, 7 days; type: in vivo, C57 mice; conditions: 40 mg/kg oral gavage; for Average colon length of mice: day 7
Procedure: Fifty 10-week-old male C57 mice, SPF class animal house, temperature 20-26° C., humidity 40%-70%, alternating light-dark periods (12 h/12 h).
(§1) Quarantine-qualified animals with similar weights were selected for the experiment.
Mice in the blank control group were given normal drinking water throughout the experiment. The other 9 groups of mice were given drinking water containing 2% dextran sodium sulphate from day 1 to day 7. All groups were administered by oral gavage once a day according to table 10, until the end of the experiment.
(§2) (1) The mice were weighed daily.
(2) Blood samples were collected from the orbital vein on day 7 and stored at −80° C.
(3) On day 7, the mice were sacrificed by cervical vertebra dislocation, the colon was removed and a small amount of fecal was taken from the colon and left as a sample. The colon length and colon weight were measured. A portion of the colon and the fecal sample was stored at −80° C.

[2] = tested on: ulcerative colitis model (dextran sodium sulphate); assay: Effect example 2: therapeutic effect on ulcerative colitis, dextran sodium sulphate model, oral gavage, 14 days; type: in vivo, C57 mice; conditions: for Weight effect compared with the positive control drug SASP (in words): 40 mg/kg oral gavage vs SASP 30 mg/kg oral gavage; for Effect on the reduction of weight in mice (in words): 40 mg/kg oral gavage, vs ulcerative colitis model group; for Average colon length of mice: day 14
Procedure: Thirty-five 10-week-old male C57 mice, SPF class animal house, temperature 20-26° C., humidity 40%-70%, alternating light-dark periods (12 h/12 h).
as §1
Mice in the blank control group were given normal drinking water throughout the experiment. The other 6 groups of mice were given drinking water containing 2% dextran sodium sulphate from day 1 to day 5, normal drinking water from day 6 to day 7, drinking water containing 2% dextran sodium sulphate from day 8 to day 12, and normal drinking water from day 13 to day 14. The experiment ended on day 14. All groups were administered by oral gavage once a day according to table 7, until the end of the experiment on day 14.
as §2
(2) Blood samples were collected from the orbital vein on day 14 and stored at −80° C.
(3) On day 14, the mice were sacrificed by cervical vertebra dislocation, the colon was removed and a small amount of fecal was taken from the colon and left as a sample. The colon length and colon weight were measured. A portion of the colon and the fecal sample was stored at −80° C.

[3] = Day 1, treatment group 40 mg/kg oral gavage
[4] = Day 2, treatment group 40 mg/kg oral gavage
[5] = Day 3, treatment group 40 mg/kg oral gavage
[6] = Day 4, treatment group 40 mg/kg oral gavage
[7] = Day 5, treatment group 40 mg/kg oral gavage
[8] = Day 6, treatment group 40 mg/kg oral gavage
[9] = Day 7, treatment group 40 mg/kg oral gavage
[10] = Day 8, treatment group 40 mg/kg oral gavage
[11] = Day 9, treatment group 40 mg/kg oral gavage
[12] = Day 10, treatment group 40 mg/kg oral gavage
[13] = Day 11, treatment group 40 mg/kg oral gavage
[14] = Day 12, treatment group 40 mg/kg oral gavage
[15] = Day 13, treatment group 40 mg/kg oral gavage
[16] = Day 14, treatment group 40 mg/kg oral gavage
[17] = treatment group 40 mg/kg oral gavage

| Structure (SMILES) | Average weight of mice ([1]; Day 1) | Average weight of mice ([1]; Day 2) | Average weight of mice ([1]; Day 3) | Average weight of mice ([1]; Day 4) | Average weight of mice ([1]; Day 5) | Average weight of mice ([1]; Day 6) | Average weight of mice ([1]; Day 7) | Average colon length of mice [1] | Weight effect compared with the positive control drug SASP (in words) [2] | Effect on the reduction of weight in mice (in words) [2] | Average weight of mice [2, 3] | Average weight of mice [2, 4] | Average weight of mice [2, 5] | Average weight of mice [2, 6] | Average weight of mice [2, 7] | Average weight of mice [2, 8] | Average weight of mice [2, 9] | Average weight of mice [2, 10] | Average weight of mice [2, 11] | Average weight of mice [2, 12] | further results |
| --- | --- | --- | --- | --- | --- | --- | --- | --- | --- | --- | --- | --- | --- | --- | --- | --- | --- | --- | --- | --- | --- |
| CC(=O)OC[C@H]1O[C@@H](OC2=C(C)OC(=C3CCN(C(C)=O)CC3)C2=O)[C@H](OC(C)=O)[C@@H](OC(C)=O)[C@@H]1OC(C)=O [Compound I-12] | 21.25 g | 21.22 g | 21.13 g | 20.62 g | 20.10 g | 16.32 g | 18.88 g | 5.7 cm |  |  |  |  |  |  |  |  |  |  |  |  |  |
| CC(=O)OC[C@H]1O[C@@H](OC2=C(C)OC(=C(C)C)C2=O)[C@H](OC(C)=O)[C@@H](OC(C)=O)[C@H]1OC(C)=O [Compound I-4, 4-O-[(2,3,4,6-tetra-O-acetyl)-β-D-galactosyl]-5-methyl-2-(1-methylethylidene)-3(2H)-furanone] |  |  |  |  |  |  |  |  | better than the positive control drug | significant improvement in the reduction of weight in mice | 26.72 g | 26.76 g | 26.72 g | 26.72 g | 26.44 g | 26.36 g | 24.82 g | 23.44 g | 23.3 g | 23.3 g | Average weight of mice [2, 13]: 24.02 g; Average weight of mice [2, 14]: 24.14 g; Average weight of mice [2, 15]: 24.5 g; Average weight of mice [2, 16]: 24.68 g; Average colon length of mice [2, 17]: 6.2 cm |
| COC(=O)[C@H]1O[C@@H](OC2=C(C)OC(=C(C)C)C2=O)[C@H](OC(C)=O)[C@@H](OC(C)=O)[C@@H]1OC(C)=O [Compound I-5] |  |  |  |  |  |  |  |  | better than the positive control drug | significant improvement in the reduction of weight in mice | 26.9 g | 26.92 g | 26.88 g | 26.9 g | 26.58 g | 26.32 g | 25.3 g | 23.6 g | 23.24 g | 23.24 g | Average weight of mice [2, 13]: 24.2 g; Average weight of mice [2, 14]: 24.48 g; Average weight of mice [2, 15]: 24.5 g; Average weight of mice [2, 16]: 24.68 g; Average colon length of mice [2, 17]: 6.0 cm |
| CC(=O)OC[C@H]1O[C@@H](OC2=C(C)OC(=C3CCNCC3)C2=O)[C@H](OC(C)=O)[C@@H](OC(C)=O)[C@@H]1OC(C)=O [Compound I-11] | 21.62 g | 21.30 g | 21.10 g | 20.97 g | 20.32 g | 19.93 g | 19.30 g | 6.2 cm |  |  |  |  |  |  |  |  |  |  |  |  | Effect on the colon length (in words) [1]: can gradually restore the colon length |
| CC(=O)OC[C@H]1O[C@@H](OC2=C(C)OC(=C3CCOCC3)C2=O)[C@H](OC(C)=O)[C@@H](OC(C)=O)[C@@H]1OC(C)=O [Compound I-10] | 21.95 g | 21.60 g | 21.18 g | 21.27 g | 20.90 g | 20.13 g | 19.25 g | 5.8 cm |  |  |  |  |  |  |  |  |  |  |  |  |  |
| CC(=O)OC[C@H]1O[C@@H](OC2=C(C)OC(=C3CCCCC3)C2=O)[C@H](OC(C)=O)[C@@H](OC(C)=O)[C@@H]1OC(C)=O [Compound I-9] | 21.20 g | 21.17 g | 20.92 g | 20.47 g | 20.03 g | 19.42 g | 19.38 g | 6.3 cm |  |  |  |  |  |  |  |  |  |  |  |  | Effect on the colon length (in words) [1]: can gradually restore the colon length |
| CC(=O)OC[C@H]1O[C@@H](OC2=C(C)OC(=C3CCCC3)C2=O)[C@H](OC(C)=O)[C@@H](OC(C)=O)[C@@H]1OC(C)=O [Compound I-8] | 21.85 g | 21.97 g | 21.77 g | 21.33 g | 20.62 g | 20.52 g | 20.32 g | 6.1 cm |  |  |  |  |  |  |  |  |  |  |  |  | Effect on the colon length (in words) [1]: can gradually restore the colon length |
| CC(C)=C1OC(C)=C(O[C@@H]2O[C@H](COC(=O)C(C)(C)C)[C@@H](OC(=O)C(C)(C)C)[C@H](OC(=O)C(C)(C)C)[C@H]2OC(=O)C(C)(C)C)C1=O [Compound I-6] |  |  |  |  |  |  |  |  | better than the positive control drug | significant improvement in the reduction of weight in mice | 26.9 g | 26.94 g | 26.9 g | 26.9 g | 26.64 g | 26.2 g | 24.52 g | 24.38 g | 24.42 g | 24.42 g | Average weight of mice [2, 13]: 24.66 g; Average weight of mice [2, 14]: 24.94 g; Average weight of mice [2, 15]: 24.72 g; Average weight of mice [2, 16]: 24.5 g; Average colon length of mice [2, 17]: 5.9 cm |
| O=C(O)c1cc(/N=N/c2ccc(S(=O)(=O)Nc3ccccn3)cc2)ccc1O [SASP, salazosulfapyridine, reference compound] |  |  |  |  |  |  |  |  |  |  |  |  |  |  |  |  |  |  |  |  | Average weight of mice ([2]; Day 1, positive control group 30 mg/kg oral gavage): 26.8 g; Average weight of mice ([2]; Day 2, positive control group 30 mg/kg oral gavage): 26.86 g; Average weight of mice ([2]; Day 3, positive control group 30 mg/kg oral gavage): 26.82 g; Average weight of mice ([2]; Day 4, positive control group 30 mg/kg oral gavage): 26.8 g; Average weight of mice ([2]; Day 5, positive control group 30 mg/kg oral gavage): 26.52 g; Average weight of mice ([2]; Day 6, positive control group 30 mg/kg oral gavage): 25.74 g; Average weight of mice ([2]; Day 7, positive control group 30 mg/kg oral gavage): 24.38 g; Average weight of mice ([2]; Day 8, positive control group 30 mg/kg oral gavage): 22.92 g; Average weight of mice ([2]; Day 9, positive control group 30 mg/kg oral gavage): 22.3 g; Average weight of mice ([2]; Day 10, positive control group 30 mg/kg oral gavage): 22.34 g; Average weight of mice ([2]; Day 11, positive control group 30 mg/kg oral gavage): 22.68 g; Average weight of mice ([2]; Day 12, positive control group 30 mg/kg oral gavage): 23.14 g; Average weight of mice ([2]; Day 13, positive control group 30 mg/kg oral gavage): 23.52 g; Average weight of mice ([2]; Day 14, positive control group 30 mg/kg oral gavage): 23.52 g; Average colon length of mice ([2]; positive control group 30 mg/kg oral gavage): 6.0 cm |
| CCOC(=O)OC[C@H]1O[C@@H](OC2=C(C)OC(=C(C)C)C2=O)[C@H](O)[C@@H](O)[C@@H]1O [Compound I-7] | 21.47 g | 21.62 g | 21.18 g | 20.82 g | 20.13 g | 20.07 g | 19.88 g | 5.4 cm |  |  |  |  |  |  |  |  |  |  |  |  |  |
